# Data: patent US20240409585A1, “MACROCYCLIC IMMUNOMODULATORS” (priority 2021, published 2024)
# Bridge positions count the residues as written; N and C are the ends. Square brackets hold non-standard residues; d marks the D form. Peptide text beside a SMILES is read from it. * marks the point of attachment. ξ: configuration not given here. Phe(4-COOH) = N[C@@H](Cc1ccc(C(=O)O)cc1)C(=O)O; Bip = N[C@@H](Cc1ccc(-c2ccccc2)cc1)C(=O)O; Phe(3-CN) = N#Cc1cccc(C[C@H](N)C(=O)O)c1; Phe(3-F) = N[C@@H](Cc1cccc(F)c1)C(=O)O; Phe(3-Me) = Cc1cccc(C[C@H](N)C(=O)O)c1; Phe(4-F) = N[C@@H](Cc1ccc(F)cc1)C(=O)O; Val(3-OH) = CC(C)(O)[C@H](N)C(=O)O; 3Pal = N[C@@H](Cc1cccnc1)C(=O)O; 4Pal = N[C@@H](Cc1ccncc1)C(=O)O; Cha = N[C@@H](CC1CCCCC1)C(=O)O; Cit = NC(=O)NCCC[C@H](N)C(=O)O; Ile(3ξ) = CCC(C)[C@H](N)C(=O)O; Carboxymethyl = O=C(O)C*; NMeA = CN[C@@H](C)C(=O)O; Orn = NCCC[C@H](N)C(=O)O; Pra = C#CC[C@H](N)C(=O)O; Dab = NCC[C@H](N)C(=O)O; Dap = NC[C@H](N)C(=O)O
# Target: T1, PE-labeled human PD-L1-Ig binding to Jurkat cell line over-expressing human PD-1 (Jurkat-PD-1) (Homo sapiens, UniProt Q15116)
# T1 construct: expressed in transfected cells; host or cells: Jurkat
# Assay: Jurkat-PD-1 Cell Binding High-Content Screening Assay (CBA): Method 1
# Settings: Jurkat-hPD-1 cells, PE-labeled PD-L1-Ig 20 nM final; read-out: Jurkat HPDL1 PD1 IC50 (uM) (Method 1)
# T1 sequence (Q15116 25-288): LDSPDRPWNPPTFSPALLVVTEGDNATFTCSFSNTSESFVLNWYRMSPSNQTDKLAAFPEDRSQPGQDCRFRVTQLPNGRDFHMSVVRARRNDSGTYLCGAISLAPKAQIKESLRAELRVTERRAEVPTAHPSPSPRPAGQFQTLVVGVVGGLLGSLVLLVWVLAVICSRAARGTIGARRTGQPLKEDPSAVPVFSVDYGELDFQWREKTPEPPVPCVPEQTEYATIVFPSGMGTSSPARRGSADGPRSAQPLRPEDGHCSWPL
row,Structure (SMILES),IC50 [µM]
1,CC(C)C[C@@H]1NC(=O)[C@H](CCN)NC(=O)[C@@H](CC(C)C)NC(=O)[C@H](C)N(C)C(=O)[C@H](CCCNC(N)=O)NC(=O)[C@H](Cc2ccc(-c3ccccc3)cc2)NC(=O)[C@H](C(C)C)NC(=O)[C@H](Cc2c[nH]c3ccccc23)NC(=O)[C@H](CC(=O)O)NC(=O)[C@H](Cc2cccnc2)NC(=O)[C@H](Cc2cccnc2)NC(=O)CSC[C@@H](C(=O)N[C@@H](C)C(N)=O)NC(=O)[C@H]([C@@H](C)O)NC(=O)[C@H](C(C)C)NC1=O [Compound 1339] ({CH2CO}-[3Pal][3Pal]DWV[Bip][Cit][NMeA][dL][Dab]LVTCA-NH2; thioether N-14),0.05
2,CC(C)C[C@@H]1NC(=O)[C@H](CCN)NC(=O)[C@@H](CC(C)C)NC(=O)[C@H](C)N(C)C(=O)[C@H](C(C)C)NC(=O)[C@H](Cc2ccc(-c3ccccc3)cc2)NC(=O)[C@H](C(C)C)NC(=O)[C@H](Cc2c[nH]c3ccccc23)NC(=O)[C@H](CC(=O)O)NC(=O)[C@H](Cc2cccc(C#N)c2)NC(=O)[C@H](CC(N)=O)NC(=O)CSC[C@@H](C(=O)N[C@@H](C)C(N)=O)NC(=O)[C@H]([C@@H](C)O)NC(=O)[C@H](C(C)C)NC1=O [Compound 1380] ({CH2CO}-N[Phe(3-CN)]DWV[Bip]V[NMeA][dL][Dab]LVTCA-NH2; thioether N-14),0.02
3,CC(C)C[C@@H]1NC(=O)[C@H](CCN)NC(=O)[C@@H](CC(C)C)NC(=O)[C@H](C)N(C)C(=O)[C@H](C(C)C)NC(=O)[C@H](Cc2ccc(-c3ccccc3)cc2)NC(=O)[C@H](C(C)C)NC(=O)[C@H](Cc2c[nH]c3ccccc23)NC(=O)[C@H](CC(=O)O)NC(=O)[C@H](Cc2ccc(O)cc2)NC(=O)[C@H](CCC(N)=O)NC(=O)CSC[C@@H](C(=O)N[C@@H](C)C(N)=O)NC(=O)[C@H]([C@@H](C)O)NC(=O)[C@H](C(C)C)NC1=O [Compound 1359] ({CH2CO}-QYDWV[Bip]V[NMeA][dL][Dab]LVTCA-NH2; thioether N-14),0.05
4,Cc1cccc(C[C@@H]2NC(=O)[C@H](CC(=O)O)NC(=O)[C@H](Cc3ccc(OCC(=O)O)cc3)NC(=O)[C@H](CN)NC(=O)CSC[C@@H](C(N)=O)NC(=O)[C@H]([C@@H](C)O)NC(=O)[C@H](C(C)C)NC(=O)[C@H](CC3CCCCC3)NC(=O)[C@H](CCN)NC(=O)[C@@H](CC(C)C)NC(=O)[C@H](C)N(C)C(=O)[C@H](Cc3ccc(OCC(=O)O)cc3)NC(=O)[C@H](Cc3ccc(-c4ccccc4)cc3)NC(=O)[C@H](Cc3ccc(OCC(=O)O)cc3)NC2=O)c1 [Compound 1650] ({CH2CO}-[Dap]Y(Carboxymethyl)D[Phe(3-Me)]Y(Carboxymethyl)[Bip]Y(Carboxymethyl)[NMeA][dL][Dab][Cha]VTC-NH2; thioether N-14),0.08
5,CC(C)C[C@@H]1NC(=O)[C@H](CCCCN)NC(=O)[C@@H](CC(C)C)NC(=O)[C@H](C)N(C)C(=O)[C@H](CCCNC(=N)N)NC(=O)[C@H](Cc2ccc(-c3ccccc3)cc2)NC(=O)[C@H](C(C)C)NC(=O)[C@H](Cc2c[nH]c3ccccc23)NC(=O)[C@H](CC(=O)O)NC(=O)[C@H](Cc2ccc(O)cc2)NC(=O)[C@H](Cc2ccccc2)NC(=O)CSC[C@@H](C(=O)N[C@@H](CCC(=O)O)C(N)=O)NC(=O)[C@H]([C@@H](C)O)NC(=O)[C@H](C(C)C)NC1=O [Compound 1168] ({CH2CO}-FYDWV[Bip]R[NMeA][dL]KLVTCE-NH2; thioether N-14),0.12
6,CC(C)C[C@@H]1NC(=O)[C@H](CCN)NC(=O)[C@@H](CC(C)C)NC(=O)[C@H](C)N(C)C(=O)[C@H](CCCNC(=N)N)NC(=O)[C@H](Cc2ccc(-c3ccccc3)cc2)NC(=O)[C@H](C(C)C)NC(=O)[C@H](Cc2c[nH]c3ccccc23)NC(=O)[C@H](CC(=O)O)NC(=O)[C@H](Cc2ccc(O)cc2)NC(=O)[C@H](CC(N)=O)NC(=O)CSC[C@@H](C(=O)N[C@@H](C)C(N)=O)NC(=O)[C@H]([C@@H](C)O)NC(=O)[C@H](C(C)C)NC1=O [Compound 1038] ({CH2CO}-NYDWV[Bip]R[NMeA][dL][Dab]LVTCA-NH2; thioether N-14),0.13
7,Cc1cccc(C[C@@H]2NC(=O)[C@H](CC(=O)O)NC(=O)[C@H](Cc3ccc(OCC(=O)O)cc3)NC(=O)[C@H](Cc3ccc(OCC(=O)O)cc3)NC(=O)CSC[C@@H](C(N)=O)NC(=O)[C@H](CCCN)NC(=O)[C@H](C(C)C)NC(=O)[C@H](CC3CCCCC3)NC(=O)[C@H](CCN)NC(=O)[C@@H](CC(C)C)NC(=O)[C@H](C)N(C)C(=O)[C@H](Cc3ccc(OCC(=O)O)cc3)NC(=O)[C@H](Cc3ccc(-c4ccccc4)cc3)NC(=O)[C@H](Cc3ccc(OCC(=O)O)cc3)NC2=O)c1 [Compound 1652] ({CH2CO}-Y(Carboxymethyl)Y(Carboxymethyl)D[Phe(3-Me)]Y(Carboxymethyl)[Bip]Y(Carboxymethyl)[NMeA][dL][Dab][Cha]V[Orn]C-NH2; thioether N-14),0.03

# Second part, the compound after the results:
row,IC50 [µM],Structure (SMILES)
1,0.02,C#CC[C@H](NC(=O)CNC(=O)[C@@H]1CSCC(=O)N[C@@H](Cc2ccc(OCC(=O)O)cc2)C(=O)N[C@@H](Cc2ccc(C(=O)O)cc2)C(=O)N[C@@H](CC(=O)O)C(=O)N[C@@H](Cc2c[nH]c3ccccc23)C(=O)N[C@@H](CC(C)C)C(=O)N[C@@H](Cc2ccc(-c3ccccc3)cc2)C(=O)N[C@@H](C(C)C)C(=O)N(C)[C@@H](C)C(=O)N[C@H](CC(C)C)C(=O)N[C@@H](CCN)C(=O)N[C@@H](CC2CCCCC2)C(=O)N[C@@H](C(C)C)C(=O)N[C@@H](CO)C(=O)N1)C(N)=O [Compound 1932] ({CH2CO}-Y(Carboxymethyl)[Phe(4-COOH)]DWL[Bip]V[NMeA][dL][Dab][Cha]VSCG[Pra]-NH2; thioether N-14)
2,0.03,Cc1cccc(C[C@@H]2NC(=O)[C@H](CC(=O)O)NC(=O)[C@H](Cc3ccc(C(=O)O)cc3)NC(=O)[C@H](Cc3ccc(OCC(=O)O)cc3)NC(=O)CSC[C@@H](C(N)=O)NC(=O)[C@H](CO)NC(=O)[C@H](C(C)C)NC(=O)[C@H](CC3CCCCC3)NC(=O)[C@H](CC(N)=O)NC(=O)[C@@H](CC(C)C)NC(=O)[C@H](C)N(C)C(=O)[C@H](C(C)C)NC(=O)[C@H](Cc3ccc(-c4ccccc4)cc3)NC(=O)[C@H](CC(C)C)NC2=O)c1 [Compound 1681] ({CH2CO}-Y(Carboxymethyl)[Phe(4-COOH)]D[Phe(3-Me)]L[Bip]V[NMeA][dL]N[Cha]VSC-NH2; thioether N-14)
3,0.01,Cc1cccc(C[C@@H]2NC(=O)[C@H](CC(=O)O)NC(=O)[C@H](Cc3ccc(C(=O)O)cc3)NC(=O)[C@H](Cc3ccc(F)cc3)NC(=O)CSC[C@@H](C(=O)N[C@@H](CCN)C(N)=O)NC(=O)[C@H](CCC(=O)O)NC(=O)[C@H](C(C)C)NC(=O)[C@H](CC3CCCCC3)NC(=O)[C@H](CCN)NC(=O)[C@@H](CC(C)C)NC(=O)[C@H](C)N(C)C(=O)[C@H](Cc3ccc(C(=O)O)cc3)NC(=O)[C@H](Cc3ccc(-c4ccccc4)cc3)NC(=O)[C@H](Cc3ccc(C(=O)O)cc3)NC2=O)c1 [Compound 2208] ({CH2CO}-[Phe(4-F)][Phe(4-COOH)]D[Phe(3-Me)][Phe(4-COOH)][Bip][Phe(4-COOH)][NMeA][dL][Dab][Cha]VEC[Dab]-NH2; thioether N-14)
4,0.01,CCC(C)[C@@H]1NC(=O)[C@H](Cc2ccc(-c3ccccc3)cc2)NC(=O)[C@H](CC(C)C)NC(=O)[C@H](Cc2c[nH]c3ccccc23)NC(=O)[C@H](CC(=O)O)NC(=O)[C@H](Cc2ccc(C(=O)O)cc2)NC(=O)[C@H](Cc2ccc(OCC(=O)O)cc2)NC(=O)CSC[C@@H](C(=O)N[C@@H](CCN)C(N)=O)NC(=O)[C@H](CCC(N)=O)NC(=O)[C@H](C(C)C)NC(=O)[C@H](CC2CCCCC2)NC(=O)[C@H](CCN)NC(=O)[C@@H](CC(C)C)NC(=O)[C@H](C)N(C)C1=O (stereo partly drawn) [Compound 1927] ({CH2CO}-Y(Carboxymethyl)[Phe(4-COOH)]DWL[Bip][Ile(3ξ)][NMeA][dL][Dab][Cha]VQC[Dab]-NH2; thioether N-14)
5,0.02,CC(C)C[C@@H]1NC(=O)[C@H](Cc2c[nH]c3ccccc23)NC(=O)[C@H](CC(=O)O)NC(=O)[C@H](Cc2ccncc2)NC(=O)[C@H](Cc2ccc(OCC(=O)O)cc2)NC(=O)CSC[C@@H](C(=O)N[C@@H](CCN)C(N)=O)NC(=O)[C@H](CCCN)NC(=O)[C@H](C(C)C)NC(=O)[C@H](CC2CCCCC2)NC(=O)[C@H](CCN)NC(=O)[C@@H](CC(C)C)NC(=O)[C@H](C)N(C)C(=O)[C@H](C(C)C)NC(=O)[C@H](Cc2ccc(-c3ccccc3)cc2)NC1=O [Compound 1948] ({CH2CO}-Y(Carboxymethyl)[4Pal]DWL[Bip]V[NMeA][dL][Dab][Cha]V[Orn]C[Dab]-NH2; thioether N-14)
6,0.02,CCNC(=O)[C@H](CCN)NC(=O)[C@@H]1CSCC(=O)N[C@@H]([C@@H](C)O)C(=O)N[C@@H](Cc2cccc(C#N)c2)C(=O)N[C@@H](CC(=O)O)C(=O)N[C@@H](Cc2cccc(C)c2)C(=O)N[C@@H](Cc2cccc(F)c2)C(=O)N[C@@H](Cc2ccc(-c3ccccc3)cc2)C(=O)N[C@@H](Cc2ccc(OCC(=O)O)cc2)C(=O)N(C)[C@@H](C)C(=O)N[C@H](CC(C)C)C(=O)N[C@@H](CCN)C(=O)N[C@@H](CC2CCCCC2)C(=O)N[C@@H](C(C)(C)O)C(=O)N[C@@H](CO)C(=O)N1 [Compound 1842] ({CH2CO}-T[Phe(3-CN)]D[Phe(3-Me)][Phe(3-F)][Bip]Y(Carboxymethyl)[NMeA][dL][Dab][Cha][Val(3-OH)]SC[Dab]-NHEt; thioether N-14)
7,0.03,CCC(C)[C@@H]1NC(=O)[C@H](Cc2ccc(-c3ccccc3)cc2)NC(=O)[C@H](CC(C)C)NC(=O)[C@H](Cc2c[nH]c3ccccc23)NC(=O)[C@H](CC(=O)O)NC(=O)[C@H](Cc2ccc(C(=O)O)cc2)NC(=O)[C@H](Cc2ccc(OCC(=O)O)cc2)NC(=O)CSC[C@@H](C(=O)N[C@@H](CC(N)=O)C(N)=O)NC(=O)[C@H]([C@@H](C)O)NC(=O)[C@H](C(C)C)NC(=O)[C@H](CC2CCCCC2)NC(=O)[C@H](CCN)NC(=O)[C@@H](CC(C)C)NC(=O)[C@H](C)N(C)C1=O (stereo partly drawn) [Compound 1919] ({CH2CO}-Y(Carboxymethyl)[Phe(4-COOH)]DWL[Bip][Ile(3ξ)][NMeA][dL][Dab][Cha]VTCN-NH2; thioether N-14)
